Experimental data published in patent US20070117743A1, “New antitumoral compounds” (priority 2003, published 2007).
Where a SMILES comes first, the peptide text is derived from it. Bridges are numbered along the chain shown (N, C = ends). [ ]: non-standard residue; d: D form. The star is where a group is joined. Hexanoyl(4S-Me) = CC[C@H](C)CCC(=O)*; d(aIle) = CC[C@H](C)[C@@H](N)C(=O)O; d(aThr) = C[C@@H](O)[C@@H](N)C(=O)O; dTic = O=C(O)[C@H]1Cc2ccccc2CN1; Orn = NCCC[C@H](N)C(=O)O; Dhb = C/C=C(\N)C(=O)O

How the values were obtained:
Format in all cases: cell-based, human
LoVo = assay: SRB colorimetric assay of cell growth and viability, LoVo; settings: LOVO, 48 hours exposure; for CC50: read-out: LC50 LOVO
SK-MEL-28 = assay: SRB colorimetric assay of cell growth and viability, SK-MEL-28; settings: 48 hours exposure, SRB; for CC50: read-out: LC50 MEL-28
IGROV-1 = assay: SRB colorimetric assay of cell growth and viability, IGROV-1; settings: 48 hours exposure, SRB
A-549 = assay: SRB colorimetric assay of cell growth and viability, A-549; settings: A-549, 48 hours exposure; for GI50: read-out: GI50 A-549; for CC50: read-out: LC50 A-549
PANC-1 = assay: SRB colorimetric assay of cell growth and viability, PANC-1; settings: PANC-1, 48 hours exposure; for CC50: read-out: LC50 PANC-1
HT-29 = assay: SRB colorimetric assay of cell growth and viability, HT-29; settings: HT-29, 48 hours exposure; for GI50: read-out: GI50 HT-29; for CC50: read-out: LC50 HT-29
HeLa = assay: SRB colorimetric assay of cell growth and viability, HeLa; settings: HELA, 48 hours exposure; for CC50: read-out: LC50 HELA
IGROV-ET = assay: SRB colorimetric assay of cell growth and viability, IGROV-ET; settings: 48 hours exposure, SRB; for CC50: read-out: LC50 IGROV-ET
K-562 = assay: SRB colorimetric assay of cell growth and viability, K-562; settings: K-562, 48 hours exposure; for CC50: read-out: LC50 K-562
LNCaP = assay: SRB colorimetric assay of cell growth and viability, LNCaP; settings: 48 hours exposure, SRB; for GI50: read-out: GI50 LN-caP; for CC50: read-out: LC50 LN-caP
Description: The finality of this assay is to interrupt the growth of a “in vitro” tumor cell culture by means a continued exhibition of the cells to the sample to be testing.
This form of the assay employs 96 well cell culture microplates of 9 mm diameter (Faircloth, 1988; Mosmann, 1983). Most of the cell lines are obtained from American Type Culture Collection (ATCC) derived from different human cancer types.
Cells are maintained in RPMI 1640 10% FBS, supplemented with 0.1 g/l penicillin and 0.1 g/l streptomycin sulfate and then incubated at 37° C., 5% CO2 and 98% humidity. For the experiments, cells were harvested from subconfluent cultures using trypsin and resuspended in fresh medium before plating.
Cells are seeded in 96 well microtiter plates, at 5×10^3 cells per well in aliquots of 195 μL medium, and they are allowed to attach to the plate surface by growing in drug free medium for 18 hours. Afterward, samples are added in aliquots of 5 μL in a ranging from 10 to 10^−8 μg/mL, dissolved in DMSO:EtOH:PBS (0.5:0.5:99). After 48 hours exposure, the antitumor effect are measured by the SRB methodology: cells are fixed by adding 50 μL of cold 50% (wt/vol) trichloroacetic acid (TCA) and incubating for 60 minutes at 4° C. Plates are washed with deionized water and dried. One hundred μL of SRB solution (0.4% wt/vol in 1% acetic acid) is added to each microtiter well and incubated for 10 minutes at room temperature. Unbound SRB is removed by washing with 1% acetic acid. Plates are air dried and bound stain is solubilized with Tris buffer. Optical densities are read on a automated spectrophotometric plate reader at a single wavelength of 490 nm.
The values for mean+/− SD of data from triplicate wells are calculated. Some parameters for cellular responses can be calculated: GI=growth inhibition, TGI=total growth inhibition (cytostatic effect) and LC=cell killing (cytotoxic effect).

LoVo-Dox = assay: SRB colorimetric assay of cell growth and viability, LoVo-Dox; settings: LOVO-DOX, 48 hours exposure; for CC50: read-out: LC50 LOVO-DOX
How it was run: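 After 48 hours continuous exposure to samples spanning 10 to 10^−8 μg/mL, biomass was quantified by sulforhodamine B staining of TCA-fixed cells (OD 490 nm). Cells, 5×10^3 per well in RPMI 1640 10% FBS, had attached 18 hours first; GI, TGI and LC derived from triplicate wells.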

DU-145 = assay: SRB colorimetric assay of cell growth and viability, DU-145; settings: 48 hours exposure, SRB
HeLa-APL = assay: SRB colorimetric assay of cell growth and viability, HeLa-APL; settings: HELA-APL, 48 hours exposure; for CC50: read-out: LC50 HELA-APL

Row | Compound | GI50 (LoVo) [µM] | TGI LOVO (LoVo) [Molar] | CC50 (LoVo) [µM] | GI50 (SK-MEL-28) [µM] | TGI MEL-28 (SK-MEL-28) [Molar] | CC50 (SK-MEL-28) [µM] | GI50 (IGROV-1) [µM] | LC50 (concentration causing 50% net cell killing) (IGROV-1) [µM] | TGI IGROV (IGROV-1) [Molar] | TGI A-549 (A-549) [Molar] | GI50 (A-549) [µM] | TGI PANC-1 (PANC-1) [Molar] | TGI HT-29 (HT-29) [Molar] | TGI HELA (HeLa) [Molar] | TGI IGROV-ET (IGROV-ET) [Molar] | TGI K-562 (K-562) [Molar] | TGI LN-caP (LNCaP) [Molar] | TGI LOVO-DOX (LoVo-Dox) [Molar] | TGI DU-145 (DU-145) [Molar] | TGI HELA-APL (HeLa-APL) [Molar] | further results
1 | C/C=C1\NC(=O)[C@H](Cc2ccccc2)NC(=O)[C@@H](C(C)C)NC(=O)[C@@H]([C@@H](C)CC)NC(=O)[C@H](NC(=O)[C@H](NC(=O)[C@H](CCCN)NC(=O)[C@@H]2CCCN2C(=O)[C@H](NC(=O)[C@@H](NC(=O)[C@@H](NC(=O)[C@H](NC(=O)CC[C@@H](C)CC)C(C)C)[C@@H](C)O)C(C)C)C(C)C)[C@@H](C)CC)[C@@H](C)OC(=O)[C@H](C(C)C)NC1=O [Compound 59, [Pro^9, (4S)-MeHex^14]-KF] | 5.28 | 6.76E−06 | ≥ 6.76 | ≥ 6.76 | 6.76E−06 | ≥ 6.76 | ≥ 6.76 | ≥ 6.76 | 6.76E−06 | 6.76E−06 | ≥ 6.76 | 6.76E−06 | 6.76E−06 | 6.76E−06 | 6.76E−06 | 6.76E−06 | 6.76E−06 | 6.76E−06 | 6.76E−06 | 6.76E−06 | CC50 (A-549): ≥ 6.76 µM; GI50 (PANC-1): ≥ 6.76 µM; CC50 (PANC-1): ≥ 6.76 µM; GI50 (HT-29): ≥ 6.76 µM; CC50 (HT-29): ≥ 6.76 µM; GI50 (HeLa): ≥ 6.76 µM; CC50 (HeLa): ≥ 6.76 µM; GI50 (IGROV-ET): ≥ 6.76 µM; CC50 (IGROV-ET): ≥ 6.76 µM; GI50 (K-562): ≥ 6.76 µM; CC50 (K-562): ≥ 6.76 µM; GI50 (LNCaP): 4.52 µM; CC50 (LNCaP): ≥ 6.76 µM; GI50 (LoVo-Dox): ≥ 6.76 µM; CC50 (LoVo-Dox): ≥ 6.76 µM; GI50 (DU-145): ≥ 6.76 µM; LC50 (concentration causing 50% net cell kill) (DU-145): ≥ 6.76 µM; GI50 (HeLa-APL): ≥ 6.76 µM; CC50 (HeLa-APL): ≥ 6.76 µM
2 | C/C=C1\NC(=O)[C@H](Cc2ccccc2)NC(=O)[C@@H](C(C)C)NC(=O)[C@@H]([C@@H](C)CC)NC(=O)[C@H](NC(=O)[C@H](NC(=O)[C@H](CCCN)NC(=O)[C@H]2CCCCN2C(=O)[C@H](NC(=O)[C@@H](NC(=O)[C@@H](NC(=O)[C@H](NC(=O)CC[C@@H](C)CC)C(C)C)[C@@H](C)O)C(C)C)C(C)C)[C@@H](C)CC)[C@@H](C)OC(=O)[C@H](C(C)C)NC1=O [Compound 60, [D-Pip^9, (4S)-MeHex^14]-KF] | 1.03 | 2.44E−06 | 5.77 | 1.66 | 3.07E−06 | 5.68 | 1.24 | 6.28 | 2.79E−06 | 3.66E−06 | 1.61 | 6.70E−06 | 2.16E−06 | 6.70E−06 | 2.68E−06 | 6.70E−06 | 2.59E−06 | 1.98E−06 | 3.17E−06 | 4.42E−06 | CC50 (A-549): 6.7 µM; GI50 (PANC-1): 6.7 µM; CC50 (PANC-1): 6.7 µM; GI50 (HT-29): 1.04 µM; CC50 (HT-29): 4.47 µM; GI50 (HeLa): 3.15 µM; CC50 (HeLa): 6.7 µM; GI50 (IGROV-ET): 1.21 µM; CC50 (IGROV-ET): 5.95 µM; GI50 (K-562): 5.3 µM; CC50 (K-562): 6.7 µM; GI50 (LNCaP): 1.23 µM; CC50 (LNCaP): 5.43 µM; GI50 (LoVo-Dox): 0.624 µM; CC50 (LoVo-Dox): 6.14 µM; GI50 (DU-145): 1.64 µM; LC50 (concentration causing 50% net cell kill) (DU-145): 6.16 µM; GI50 (HeLa-APL): 2.05 µM; CC50 (HeLa-APL): 6.7 µM
3 | C/C=C1\NC(=O)[C@H](Cc2ccccc2)NC(=O)[C@@H](C(C)C)NC(=O)[C@@H]([C@@H](C)CC)NC(=O)[C@H](NC(=O)[C@H](NC(=O)[C@H](CCCN)NC(=O)[C@H]2Cc3ccccc3CN2C(=O)[C@H](NC(=O)[C@@H](NC(=O)[C@@H](NC(=O)[C@H](NC(=O)CC[C@@H](C)CC)C(C)C)[C@@H](C)O)C(C)C)C(C)C)[C@@H](C)CC)[C@@H](C)OC(=O)[C@H](C(C)C)NC1=O [Compound 61, [D-Tic^9, (4S)-MeHex^14]-KF] ({Hexanoyl(4S-Me)}-[dV]TV[dV][dTic][Orn][d(aIle)][d(aThr)][d(aIle)][dV]F[Dhb]V; ester 8-C) | 1.2 | 2.65E−06 | 5.83 | 3.79 | 6.49E−06 | ≥ 6.49 | 1.36 | 5.98 | 2.86E−06 | 6.49E−06 | 2.87 | 6.49E−06 | 2.25E−06 | 6.49E−06 | 3.30E−06 | 6.49E−06 | 2.40E−06 | 2.71E−06 | 4.24E−06 | 6.49E−06 | CC50 (A-549): ≥ 6.49 µM; GI50 (PANC-1): ≥ 6.49 µM; CC50 (PANC-1): ≥ 6.49 µM; GI50 (HT-29): 1.18 µM; CC50 (HT-29): 4.26 µM; GI50 (HeLa): 3.48 µM; CC50 (HeLa): ≥ 6.49 µM; GI50 (IGROV-ET): 1.44 µM; CC50 (IGROV-ET): ≥ 6.49 µM; GI50 (K-562): ≥ 6.49 µM; CC50 (K-562): ≥ 6.49 µM; GI50 (LNCaP): 0.921 µM; CC50 (LNCaP): 6.26 µM; GI50 (LoVo-Dox): 1.17 µM; CC50 (LoVo-Dox): 6.28 µM; GI50 (DU-145): 1.72 µM; LC50 (concentration causing 50% net cell kill) (DU-145): ≥ 6.49 µM; GI50 (HeLa-APL): 4.93 µM; CC50 (HeLa-APL): ≥ 6.49 µM
4 | C/C=C1\NC(=O)[C@H](Cc2ccccc2)NC(=O)[C@@H](C(C)C)NC(=O)[C@@H]([C@@H](C)CC)NC(=O)[C@H](NC(=O)[C@H](NC(=O)[C@H](CCCN)NC(=O)[C@@H]2CC[C@H](c3ccccc3)N2C(=O)[C@H](NC(=O)[C@@H](NC(=O)[C@@H](NC(=O)[C@H](NC(=O)CC[C@@H](C)CC)C(C)C)[C@@H](C)O)C(C)C)C(C)C)[C@@H](C)CC)[C@@H](C)OC(=O)[C@H](C(C)C)NC1=O [Compound 62, [(5R)-Ph-Pro^9, (4S)-MeHex^14]-KF] |  | 6.43E−06 |  |  | 6.43E−06 |  |  |  | 6.43E−06 | 6.43E−06 |  | 6.43E−06 | 6.43E−06 | 6.43E−06 | 6.43E−06 | 6.43E−06 | 6.43E−06 | 6.43E−06 | 6.43E−06 | 6.43E−06 | 
